Laboratory results reported in patent publication US20100267750A1, “METHODS AND COMPOSITIONS FOR TREATING PAIN” (priority 2005, published 2010).

Key:
[1] = Plasma levels / pharmacokinetics in male Sprague-Dawley rat; assay type: in vivo; conditions: oral suspension 12 mg/kg
Protocol: Compound 200 plasma levels were determined via HPLC/MS/MS following a single intravenous bolus dose of 0.9 mg/kg, an intraperitoneal dose of 12 mg/kg (suspension), and an oral dose of 12 mg/kg (suspension) in the male Sprague-Dawley rat. […] For intraperitoneal administration, Compound 200 was formulated as a uniform suspension in CMC (carboxymethylcellulose) at a target concentration of 1 mg/mL and administered at a dose volume of 10 mL/kg. For oral administration, Compound 200 was formulated as a uniform suspension in CMC (carboxymethylcellulose), at a target concentration of 1 mg/mL, administered by gavage, at a dose volume of 10 mL/kg, to the conscious, fasted, male Sprague-Dawley rat.

[2] = system: bradykinin induced tactile allodynia; assay: Bradykinin induced pain model; assay type: in vivo, rat
Protocol: As outlined above, the bradykinin model involves an intraplantar injection of a 5 ng/uL solution of bradykinin. Injection of the bradykinin solution typically causes a rapid sensitization. Sensitization is measured by assessing the thermal escape latency of the injected paw in response to a mild thermal stimulus delivered by a modified Hargreaves apparatus. FIGS. 1a and 1b summarize data obtained following testing of Compound 200 in the bradykinin model. This study examined the antinociceptive effects of 200 mg/kg, 50 mg/kg, and 12.5 mg/kg intraperitoneal Compound 200 on bradykinin induced tactile allodynia. […] Inhibitor or vehicle were injected intraperitoneally (IP). […] Throughout the study, general behavioral assessments were made during each period of observation. Observations included tactile allodynia (vocalization/agitation induced by light touch applied to the body surface), spontaneous vocalization, biting and chewing of body surface, loss of hind limb placing and stepping reflex, loss of hind limb weight bearing, and loss of righting reflex. Additionally, mechanical allodynia was assessed and measured. The results provided in FIGS. 1a and 1b are based on assessment of mechanical allodynia.

[3] = system: carrageenan-induced inflammation (paw volume); assay: Carrageenan model of acute inflammatory pain; assay type: in vivo, rat; conditions: IP, 30-60 minutes before testing
Protocol: In this study, the drug administered was either a TRPA1 inhibitor or the non-steroidal anti-inflammatory diclofenac. Following administration of both carrageenan and drug or vehicle control, paw volume was measured and used to assess decreased inflammation.

[4] = system: CFA induced thermal hyperalgesia; assay: CFA model of inflammatory pain
Protocol: FIG. 4 summarizes data obtained following testing of Compound 200 in the CFA model. Naive rats were pretested for sensitivity to a heat stimulus in the Hargreaves apparatus. The next day, 100 μL of complete Freund's adjuvant (CFA) was injected into the plantar surface of the right hindpaw. Two days later, in the morning, the rats were again pretested. In the afternoon, rats were injected with either vehicle control or with drug (TRPA1 inhibitor 200 or the non-steroidal anti-inflammatory diclofenac). Drugs or vehicle were injected intraperitoneally, and 45 minutes later rats were tested for hyperalgesia by applying the heat source to the CFA injected and uninjected hindpaw and measuring latency to withdrawal.

[5] = system: bladder pressure in BOO rats; assay: Partial bladder outlet obstruction (BOO) model of incontinence; conditions: intravesical infusion
From the text: Efficacy of the varying doses of TRPA1 inhibitory compound were compared to controls administered excipients alone (sham control). Efficacy was also compared to rats administered a positive control, such as atropine.
Female Sprague Dawley rats were used in these studies. Rats underwent surgical partial bladder outlet obstruction (BOO) or sham surgery. Five weeks after BOO (or sham) surgery, an intravesical catheter was surgically implanted into the dome of the bladder for conducting urodynamic studies. One week after catheter implantation (6 weeks after BOO or sham), urodynamic studies began. […] An analytic balance beneath the wire-bottom animal cage measured the amount of urine voided during continuous cystometry. […]
For each CMG cycle, the following parameters were assessed: infused volume (the amount of saline or drug infused for each CMG cycle); void volume (the amount of urine voided by the animal for each CMG cycle); minimum pressure (minimum pressure during filling); threshold pressure (pressure prior to micturition when bladder pressure begins to rise steeply); average pressure (average pressure during filling and before threshold); maximum pressure; intermicturition interval (time between two subsequent voiding events); urine flow rate index.

[6] = system: formalin induced paw flinching; assay: Formalin model of pain; assay type: in vivo, rat; conditions: 2% formalin intraplantar, drug 15 min before
Protocol: As outlined above, the formalin model involves injection of a formalin solution intradermally or […]. Injection of formalin solution invokes a biphasic response, and thus provides a model for both nociceptive and inflammatory pain. The formalin model can be used to evaluate the effectiveness of an exemplary TRPA1 inhibitor in the treatment of pain. […] Briefly, the following protocol was followed. Male Holtzmann rats received intraplantar injections of 50 μL of 2% formalin. Paw flinching was detected by an automated sensor detecting movement of a small metal band placed on the injected hind paw. Drug or vehicle was administered approximately 15 minutes prior to the injection of formalin. The animal's response to injection of the irritant was measured by counting flinches per minutes during the Early Phase (the first 5 minutes following injection of formalin), during the Late Phase (approximately 30 minutes after injection of formalin), and during the intervening pain free phase. In FIG. 2, the right most bar for each data set (Early Phase and Late Phase) represents administration of vehicle alone and the left most bar represents administration of gabapentin. […]

hTRPA1 = molecular target: T1, hTRPA1 (Homo sapiens, UniProt O75762, K186N); assay: hTRPA1 Fluo4 calcium flux assay in HEK293/TREx cells; assay type: cell-based; conditions: Table 2; read-out: hTRPA1 Fluor IC50
T1 construct: expressed in transfected cells; host or cells: HEK293/TREx (Invitrogen), stably transfected, tetracycline-induced
T1 sequence (O75762 whole entry K186N): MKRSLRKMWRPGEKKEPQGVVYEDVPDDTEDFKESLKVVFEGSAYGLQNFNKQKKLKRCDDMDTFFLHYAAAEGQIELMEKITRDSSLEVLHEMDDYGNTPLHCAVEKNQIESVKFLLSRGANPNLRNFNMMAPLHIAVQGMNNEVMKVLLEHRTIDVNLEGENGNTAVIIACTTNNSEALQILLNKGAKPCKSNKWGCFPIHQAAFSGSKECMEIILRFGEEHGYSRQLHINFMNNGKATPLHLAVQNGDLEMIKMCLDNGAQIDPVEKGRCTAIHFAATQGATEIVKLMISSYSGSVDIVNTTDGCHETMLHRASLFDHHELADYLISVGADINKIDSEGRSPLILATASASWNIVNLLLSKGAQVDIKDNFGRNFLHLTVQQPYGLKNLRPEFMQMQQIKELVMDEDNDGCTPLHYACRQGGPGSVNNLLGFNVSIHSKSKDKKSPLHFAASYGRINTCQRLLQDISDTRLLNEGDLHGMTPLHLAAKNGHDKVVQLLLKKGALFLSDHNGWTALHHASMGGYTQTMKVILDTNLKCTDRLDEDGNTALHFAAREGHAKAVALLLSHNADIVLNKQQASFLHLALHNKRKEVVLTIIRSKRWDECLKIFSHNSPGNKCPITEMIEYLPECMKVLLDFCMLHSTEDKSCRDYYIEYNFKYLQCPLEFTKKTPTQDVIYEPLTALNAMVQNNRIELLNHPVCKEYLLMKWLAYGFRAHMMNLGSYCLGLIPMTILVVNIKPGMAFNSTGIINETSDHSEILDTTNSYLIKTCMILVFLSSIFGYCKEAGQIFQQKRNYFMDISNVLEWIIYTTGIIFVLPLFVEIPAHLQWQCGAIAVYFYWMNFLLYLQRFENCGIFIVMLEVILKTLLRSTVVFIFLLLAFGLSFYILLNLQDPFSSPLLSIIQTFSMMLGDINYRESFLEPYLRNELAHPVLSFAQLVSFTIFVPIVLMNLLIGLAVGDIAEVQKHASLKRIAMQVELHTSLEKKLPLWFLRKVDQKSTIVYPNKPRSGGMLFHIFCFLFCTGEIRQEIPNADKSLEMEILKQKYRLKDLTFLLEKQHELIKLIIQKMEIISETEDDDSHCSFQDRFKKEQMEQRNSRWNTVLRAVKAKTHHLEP
From the text: The assay depended on detection of the rise in intracellular Ca^2+ concentration ([Ca^2+]i) following channel activation in cells inducibly expressing the TRPA1 channel. Ca^2+ rise was quantified with the use of fluorescent Ca^2+ indicators that were loaded into cells and thereafter indicated the [Ca^2+]i. Ca^2+ influx followed activation of the TRPA1 channel. Compounds inhibiting the [Ca^2+]i rise were considered hits for further investigation.
These cells were maintained in the growth medium recommended by the manufacturer supplemented with 100 μg/ml hygromycin to promote retention of the TRPA1 construct. After growing to near confluency, cells were plated at a density of ˜25,000 cells/well in 384 well CellBind plates (Corning) in the presence of 1 μg/ml tetracycline, and allowed to grow for 20-30 hrs. A nearly confluent monolayer resulted. […] These controls defined a screening window, and “hits” were defined as those compounds inhibiting the fluorescence response by at least 40%. IC50 values were determined for compounds defined as “hits.” The Fluo4 cell-based fluorescence assay was used to determine the intracellular Ca^2+ concentration in the presence of varying drug concentration. […]

What does the source list for `CC(C)c1ccc(NC(=O)Cn2cnc3c2c(=O)n(C)c(=O)n3C)cc1` [Compound 200, 2-(1,3-dimethyl-2,6-dioxo-1,2,3,6-tetrahydropurin-7-yl)-N-(4-isopropylphenyl)acetamide]?
time at which Cmax occurred [1]: 45 min; effect on mechanical threshold after bradykinin injection ([2]; IP 12.5, 50, 200 mg/kg, 30 min before bradykinin): dose dependent effect; behavioral parameters ([2]; IP doses up to 200 mg/kg): no changes; sedation ([2]; highest dose (200 mg/kg IP)): only mild sedation was observed in 3 of 8 rats; paw volume (inflammation) [3]: decreased paw volume; control paw (uninflamed) sensation ([4]; IP, tested 45 minutes later): not affected; efficacy compared with diclofenac ([4]; IP, tested 45 minutes later): superior to diclofenac; thermal hyperalgesia, CFA injected paw ([4]; IP, tested 45 minutes later): reduced thermal hyperalgesia; toxicity ([4]; rat, in vivo, 45 min): without toxicity; maximum bladder pressure [5]: decreased; threshold bladder pressure [5]: decreased; flinches per minute, Early Phase [6]: substantially reduced; flinches per minute, Late Phase [6]: substantially reduced

For `COC(=O)c1ccc(C)c(NC(=O)Cn2cnc3c2c(=O)n(C)c(=O)n3C)c1` [Compound 346], which IC50 (hTRPA1) is on record?
Its IC50 is ≤ 30 µM.
